The text below walks through data of patent publication US8378117B2 (priority 2005, dated 2013).

Values joined by “and” are separate entries in the source; they are usually repeats but may differ in a detail not shown here. Equal entries are not always repeated. Where two headings read alike, the source gives them in different places.

Test [1] concerns the target T1, CB1 receptor (Homo sapiens, UniProt P21554).
T1 construct: expressed in transfected cells
Nature of the test: cell-based. In a few lines:
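SK-N-MC cells stably co-expressing human CB1 and a CRE-β-galactosidase reporter; forskolin-induced β-gal activity measured after compound treatment, as % of vehicle-treated cells (100%). EC50 by linear regression from concentration series; otherwise % change at a single concentration.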

The target in test [2] is T1, CB1 receptor. The test can be described thus: Binding assay for CB1 agonists or inverse agonists (SK-N-MC membranes, [3H]-CP-55,940). The note with it: for IC50: Cannabinoid CB1 Receptor Binding IC50, calculated by linear regression from percent inhibition at various test concentrations; for inhibition at 0.25 µM: read-out: CB1 receptor binding percent inhibition, test concentration 0.25 μM (footnote 8); for inhibition at 0.015 µM: read-out: CB1 receptor binding percent inhibition, test concentration 0.015 μM (footnote 7); for inhibition at 0.2 µM: read-out: CB1 receptor binding percent inhibition, test concentration 0.2 μM (footnote 2). The procedure, abridged:
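Membranes from SK-N-MC cells stably expressing human CB1 incubated with compound and [3H]-CP-55,940 ([…]) for 90 min at 30° C in Tris-HCl pH 7.5, MgCl2, EDTA, fatty-acid-free BSA. Non-specific binding defined with 10 uM WIN 55,212; filtration, scintillation count; IC50 by linear regression.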

For another test, the target named is T2, CB2 receptor (Homo sapiens, UniProt P34972).
T2 construct: expressed in transfected cells
T2 sequence (P34972 whole entry): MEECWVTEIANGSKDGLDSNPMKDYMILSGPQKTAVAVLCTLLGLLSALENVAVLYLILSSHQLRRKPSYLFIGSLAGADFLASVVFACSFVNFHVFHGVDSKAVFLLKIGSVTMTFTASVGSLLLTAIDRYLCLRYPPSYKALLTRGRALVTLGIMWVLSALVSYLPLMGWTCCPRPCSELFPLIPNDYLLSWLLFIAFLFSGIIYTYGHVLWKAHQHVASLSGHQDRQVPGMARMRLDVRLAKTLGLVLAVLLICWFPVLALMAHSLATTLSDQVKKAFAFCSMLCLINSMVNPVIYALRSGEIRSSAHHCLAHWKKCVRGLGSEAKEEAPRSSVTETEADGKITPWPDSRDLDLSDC
The test can be described thus: Binding assay for CB2 agonists or inverse agonists (SK-N-MC membranes, [3H]-CP-55,940). The note with it: for CB2 receptor binding percent inhibition: test concentration not stated; for inhibition at 0.25 µM: read-out: CB2 receptor binding percent inhibition, test concentration 0.25 μM (footnote 8); for inhibition at 0.2 µM: read-out: CB2 receptor binding percent inhibition, test concentration 0.2 μM (footnote 2). The procedure, abridged: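 Membranes from SK-N-MC cells stably expressing human CB2 were incubated with radioligand and test compounds for 90 min at 30 °C in Tris-HCl buffer, pH 7.5, with MgCl2, EDTA and fatty-acid-free BSA. Filter-bound radioactivity was counted; IC50 was derived by linear regression of percent inhibition.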

[3] abbreviates: CB1 Receptor Functional Inverse Agonist EC50, forskolin induced β-galactosidase activity, SK-N-MC cells.
Setting [4] is: read-out: CB1 receptor binding percent inhibition.
Setting [5] is: read-out: CB1 receptor binding percent inhibition, test concentration 1 μM (footnote 1).
[6] abbreviates: forskolin induced β-galactosidase activity, SK-N-MC cells, read-out: CB1 Receptor Functional Inverse Agonist EC50.

T1 sequence (P21554 whole entry): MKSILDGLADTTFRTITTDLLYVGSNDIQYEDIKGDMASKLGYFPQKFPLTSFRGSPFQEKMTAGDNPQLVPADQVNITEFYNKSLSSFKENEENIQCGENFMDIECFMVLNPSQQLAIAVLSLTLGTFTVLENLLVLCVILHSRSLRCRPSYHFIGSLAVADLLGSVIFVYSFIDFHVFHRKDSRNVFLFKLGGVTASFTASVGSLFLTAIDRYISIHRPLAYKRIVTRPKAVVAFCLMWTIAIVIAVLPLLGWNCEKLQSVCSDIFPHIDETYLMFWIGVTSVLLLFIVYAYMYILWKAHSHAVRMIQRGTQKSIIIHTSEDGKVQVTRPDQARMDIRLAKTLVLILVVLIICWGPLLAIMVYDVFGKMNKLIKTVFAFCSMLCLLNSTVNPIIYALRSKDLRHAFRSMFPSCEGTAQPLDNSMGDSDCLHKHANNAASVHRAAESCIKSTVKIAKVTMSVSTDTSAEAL

The EC50 is the concentration that produces a half-maximal response. For `O=C(c1nn(-c2ccc(F)cc2F)c2c1CCCCC2Cc1cccc(F)c1)N1CCOCC1` (stereo not drawn) [Cpd 118, [1-(2,4-difluoro-phenyl)-8-(3-fluoro-benzyl)-1,4,5,6,7,8-hexahydro-cycloheptapyrazol-3-yl]-morpholin-4-yl-methanone], at CB1 receptor [1] (setting [3]), the EC50 came to 100 nM. Also, the inhibition at 1 µM at CB1 receptor [2] (setting [4]) was 4%. The “CB2 receptor binding percent inhibition” value on CB2 receptor is recorded as 31%.
For the compound `O=C(N[C@@H]1c2ccccc2C[C@@H]1O)c1nn(C2CCCCC2)c2c1CCCC[C@@H]2Cc1ccc(F)cc1` [Cpd 120, (8R)-1-cyclohexyl-8-(4-fluoro-benzyl)-1,4,5,6,7,8-hexahydro-cycloheptapyrazole-3-carboxylic acid [(1R,2S)-2-hydroxy-indan-1-yl]-amide], the EC50 at CB1 receptor [1] (setting [3]) came to 100 nM. Also, the inhibition at 1 µM on CB1 receptor [2] (setting [5]) is 9%. Besides, the “CB2 receptor binding percent inhibition” value at CB2 receptor came to 16%.
The corresponding values for `O=S(=O)(/C=C/c1nn(-c2ccc(F)cc2F)c2c1CCCCC2Cc1ccc(F)cc1)NN1CCCCC1` (stereo not drawn) [Cpd 122, (2E)-2-[1-(2,4-difluoro-phenyl)-8-(4-fluoro-benzyl)-1,4,5,6,7,8-hexahydro-cycloheptapyrazol-3-yl]-ethenesulfonic acid piperidin-1-ylamide] are 60 nM, 0% and 0%.
On CB1 receptor [1] (setting [3]), `O=S(=O)(/C=C/c1nn(-c2ccc(F)cc2F)c2c1CCCCC2Cc1cccc(F)c1)NN1CCCCC1` (stereo not drawn) [Cpd 123, (2E)-2-[1-(2,4-difluoro-phenyl)-8-(3-fluoro-benzyl)-1,4,5,6,7,8-hexahydro-cycloheptapyrazol-3-yl]-ethenesulfonic acid piperidin-1-ylamide] returned an EC50 of 2900 nM. In addition, the inhibition at 1 µM on CB1 receptor [2] (setting [4]) was determined as 47%. Besides, the “CB2 receptor binding percent inhibition” value on CB2 receptor turned out to be 14%.
Consider `Cn1nc(/C=C/S(=O)(=O)NN2CCCCC2)c2c1C(Cc1cccc(F)c1)CCCC2` (stereo not drawn) [Cpd 124, (2E)-2-[8-(3-fluoro-benzyl)-1-methyl-1,4,5,6,7,8-hexahydro-cycloheptapyrazol-3-yl]-ethenesulfonic acid piperidin-1-ylamide], for which the EC50 on CB1 receptor [1] (setting [6]) was found to be 3400 nM. Moreover, the inhibition at 1 µM at CB1 receptor [2] (setting [5]) amounted to 14%. The “CB2 receptor binding percent inhibition” value at CB2 receptor is reported as 47%.
The like results for `Cn1nc(/C=C/S(=O)(=O)NN2CCCCC2)c2c1C(Cc1ccc(F)cc1)CCCC2` (stereo not drawn) [Cpd 128, (2E)-2-[8-(4-fluoro-benzyl)-1-methyl-1,4,5,6,7,8-hexahydro-cycloheptapyrazol-3-yl]-ethenesulfonic acid piperidin-1-ylamide] were, in that order, 2700 nM, 0% and 0%.
As a reminder, the IC50 is the midpoint of a concentration-inhibition curve. Regarding `CS(=O)(=O)n1nc(C(=O)NCc2ccccc2)c2c1C(Cc1ccc(F)cc1)CCCC2` (stereo not drawn) [Cpd 130, 8-(4-fluoro-benzyl)-1-methanesulfonyl-1,4,5,6,7,8-hexahydro-cycloheptapyrazole-3-carboxylic acid benzylamide], on CB1 receptor [1] (CB1 Receptor Functional Agonist EC50, SK-N-MC cells, forskolin induced β-galactosidase activity), the concentration giving a half-maximal response (EC50) is less than 30 nM. Moreover, on CB1 receptor [2], the IC50 is 60 nM and the inhibition at 0.25 µM is 84%. The inhibition at 0.25 µM on CB2 receptor came to 98%.
Consider `C[C@@H](NC(=O)c1nn(-c2ccc(Cl)cc2Cl)c2c1CCCC/C2=C\c1ccc(Cl)cc1)c1ccccc1` [Cpd 131, (8E)-8-(4-chloro-benzylidene)-1-(2,4-dichloro-phenyl)-1,4,5,6,7,8-hexahydro-cycloheptapyrazole-3-carboxylic acid [(1R)-1-phenyl-ethyl]-amide], for which, on CB1 receptor [1] (setting [3]), the EC50 is less than 30 nM. On CB1 receptor [2], the IC50 was 6 nM, the inhibition at 0.015 µM came to 53% and the inhibition at 0.25 µM is 93%. In addition, the inhibition at 0.25 µM at CB2 receptor was determined as 34%.
The corresponding values for `C[C@@H](NC(=O)c1nn(-c2ccc(Cl)cc2Cl)c2c1CCCC/C2=C\c1ccc(Cl)cc1)C1CCCCC1` [Cpd 132, (8E)-8-(4-chloro-benzylidene)-1-(2,4-dichloro-phenyl)-1,4,5,6,7,8-hexahydro-cycloheptapyrazole-3-carboxylic acid [(1R)-1-cyclohexyl-ethyl]-amide] are 10 nM, 5 nM, 64%, 94% and 42%.
For `O=C(NN1CCCCC1)c1nn(-c2ccc(Cl)cc2Cl)c2c1CCCC/C2=C\c1ccc(Cl)cc1` [Cpd 133, (8E)-8-(4-chloro-benzylidene)-1-(2,4-dichloro-phenyl)-1,4,5,6,7,8-hexahydro-cycloheptapyrazole-3-carboxylic acid piperidin-1-ylamide], the midpoint of the response on CB1 receptor [1] (setting [3]), the EC50, lay at 30 nM. The IC50 on CB1 receptor [2] was 100 nM. For the same compound, the figures for the inhibition at 0.25 µM on CB1 receptor [2] and at CB2 receptor were 66% and 29%, respectively.
The compound `O=C(NN1CCOCC1)c1nn(-c2ccc(Cl)cc2Cl)c2c1CCCC/C2=C\c1ccc(Cl)cc1` [Cpd 134, (8E)-8-(4-chloro-benzylidene)-1-(2,4-dichloro-phenyl)-1,4,5,6,7,8-hexahydro-cycloheptapyrazole-3-carboxylic acid morpholin-4-ylamide] returned an EC50 at CB1 receptor [1] (setting [3]) of 10 nM. Further, the inhibition at 0.25 µM at CB1 receptor [2] was found to be 58%; on CB2 receptor it was 28%.
The compound `NS(=O)(=O)c1ccc(CNC(=O)c2nn(-c3ccc(Cl)cc3Cl)c3c2CCCC/C3=C\c2ccc(Cl)cc2)cc1` [Cpd 135, (8E)-8-(4-chloro-benzylidene)-1-(2,4-dichloro-phenyl)-1,4,5,6,7,8-hexahydro-cycloheptapyrazole-3-carboxylic acid 4-sulfamoyl-benzylamide] returned an EC50 at CB1 receptor [1] (setting [3]) of less than 30 nM. Moreover, the IC50 on CB1 receptor [2] is 50 nM. Further, the inhibition at 0.25 µM at CB1 receptor [2] came out at 65%; on CB2 receptor, 25%.
Regarding `O=C(NS(=O)(=O)c1ccccc1)c1nn(-c2ccc(Cl)cc2Cl)c2c1CCCC/C2=C\c1ccc(Cl)cc1` [Cpd 136, (8E)-N-[8-(4-chloro-benzylidene)-1-(2,4-dichloro-phenyl)-1,4,5,6,7,8-hexahydro-cycloheptapyrazole-3-carbonyl]-benzenesulfonamide], at CB1 receptor [1] (setting [3]), it took 30 nM to reach a half-maximal effect (EC50). Moreover, the results for the inhibition at 0.25 µM on CB1 receptor [2] and at CB2 receptor were 39% and 18%, respectively.
For the compound `CC(NC(=O)c1nn(-c2ccc(Cl)cc2Cl)c2c1CCCC/C2=C\c1ccc(Cl)cc1)c1ccc(Cl)cc1` (stereo not drawn) [Cpd 137, (8E)-8-(4-chloro-benzylidene)-1-(2,4-dichloro-phenyl)-1,4,5,6,7,8-hexahydro-cycloheptapyrazole-3-carboxylic acid [1-(4-chloro-phenyl)-ethyl]-amide], the EC50 on CB1 receptor [1] (setting [3]) stood at 30 nM. At CB1 receptor [2], the IC50 is 10 nM, the inhibition at 0.015 µM is 57% and the inhibition at 0.25 µM was found to be 77%. The inhibition at 0.25 µM on CB2 receptor stood at 0%.
In turn, `C[C@H](NC(=O)c1nn(-c2ccc(Cl)cc2Cl)c2c1CCCC/C2=C\c1ccc(Cl)cc1)C1CCCCC1` [Cpd 138, (8E)-8-(4-chloro-benzylidene)-1-(2,4-dichloro-phenyl)-1,4,5,6,7,8-hexahydro-cycloheptapyrazole-3-carboxylic acid [(1S)-1-cyclohexyl-ethyl]-amide] gave an EC50 on CB1 receptor [1] (setting [3]) of 100 nM. Besides, the IC50 on CB1 receptor [2] was 30 nM. Also, the inhibition at 0.2 µM is 71% at CB1 receptor [2] and 22% on CB2 receptor.
For `C[C@@H](NC(=O)c1nn(-c2ccc(Cl)cc2Cl)c2c1CCCC/C2=C\c1ccc(F)cc1)c1ccccc1` [Cpd 146, (8E)-1-(2,4-dichloro-phenyl)-8-(4-fluoro-benzylidene)-1,4,5,6,7,8-hexahydro-cycloheptapyrazole-3-carboxylic acid [(1R)-1-phenyl-ethyl]-amide], the EC50 at CB1 receptor [1] (setting [3]) came to 20 nM. For the same compound, on CB1 receptor [2], the IC50 was 8 nM and 10 nM; the inhibition at 0.2 µM amounted to 93%. Moreover, the IC50 on CB2 receptor (Cannabinoid CB2 Receptor Binding IC50, calculated by linear regression from percent inhibition at various test concentrations) is 2300 nM. Moreover, on CB2 receptor, the inhibition at 0.2 µM was 10% and the “CB2 receptor binding percent inhibition” value came to 3%.
In the case of `C[C@@H](NC(=O)c1nn(-c2ccc(Cl)cc2Cl)c2c1CCCC/C2=C\c1ccc(F)cc1)C1CCCCC1` [Cpd 147, (8E)-1-(2,4-dichloro-phenyl)-8-(4-fluoro-benzylidene)-1,4,5,6,7,8-hexahydro-cycloheptapyrazole-3-carboxylic acid [(1R)-1-cyclohexyl-ethyl]-amide], the EC50 at CB1 receptor [1] (setting [3]) amounted to 30 nM. Further, the IC50 at CB1 receptor [2] was 7 nM. In addition, the inhibition at 0.2 µM is 94% at CB1 receptor [2] and 23% on CB2 receptor.
The corresponding values for `C[C@H](NC(=O)c1nn(-c2ccc(Cl)cc2Cl)c2c1CCCC/C2=C\c1ccc(F)cc1)C1CCCCC1` [Cpd 148, (8E)-1-(2,4-dichloro-phenyl)-8-(4-fluoro-benzylidene)-1,4,5,6,7,8-hexahydro-cycloheptapyrazole-3-carboxylic acid [(1S)-1-cyclohexyl-ethyl]-amide] are 200 nM, 80 nM, 69% and 39%.
